From the NIST ThermoML archive (doi:10.1021/je100851w)
± gives the expanded uncertainty stated by the source.

Test: xn = mol fraction of the nth substance listed
Details: Vibrating tube method

S [hydrogen sulfide] + CCC
Details | mass density [kg/m3]
263.11 K, 8 kPa, Gas, x1 = 0.2227 | 0.1
263.11 K, 159 kPa, Gas, x1 = 0.2227 | 3.1 ± 0.1
263.11 K, 298 kPa, Gas, x1 = 0.2227 | 6.1 ± 0.1
263.11 K, 438 kPa, Gas, x1 = 0.2227 | 9.1 ± 0.1
263.11 K, 707 kPa, Liquid, x1 = 0.2227 | 571.2 ± 0.3
263.11 K, 2357 kPa, Liquid, x1 = 0.2227 | 574.3 ± 0.3
263.11 K, 4057 kPa, Liquid, x1 = 0.2227 | 577.3 ± 0.3
263.11 K, 5814 kPa, Liquid, x1 = 0.2227 | 580.3 ± 0.4
263.11 K, 7697 kPa, Liquid, x1 = 0.2227 | 583.3 ± 0.4
263.11 K, 9735 kPa, Liquid, x1 = 0.2227 | 586.4 ± 0.5
263.11 K, 11879 kPa, Liquid, x1 = 0.2227 | 589.5 ± 0.5
263.11 K, 14087 kPa, Liquid, x1 = 0.2227 | 592.6 ± 0.5
263.11 K, 16300 kPa, Liquid, x1 = 0.2227 | 595.6 ± 0.6
263.11 K, 18708 kPa, Liquid, x1 = 0.2227 | 598.6 ± 0.6
263.11 K, 21118 kPa, Liquid, x1 = 0.2227 | 601.6 ± 0.7
263.11 K, 23736 kPa, Liquid, x1 = 0.2227 | 604.6 ± 0.7
263.11 K, 26466 kPa, Liquid, x1 = 0.2227 | 607.7 ± 0.8
263.11 K, 29282 kPa, Liquid, x1 = 0.2227 | 610.8 ± 0.8
263.11 K, 32290 kPa, Liquid, x1 = 0.2227 | 613.9 ± 0.9
263.11 K, 35311 kPa, Liquid, x1 = 0.2227 | 616.9 ± 0.9
263.11 K, 38486 kPa, Liquid, x1 = 0.2227 | 620 ± 1
263.11 K, 41881 kPa, Liquid, x1 = 0.2227 | 623.1 ± 1
268.09 K, 9 kPa, Gas, x1 = 0.2691 | 0.2
268.09 K, 180 kPa, Gas, x1 = 0.2691 | 3.5 ± 0.1
268.09 K, 335 kPa, Gas, x1 = 0.2691 | 6.7 ± 0.1
268.09 K, 476 kPa, Gas, x1 = 0.2691 | 9.7 ± 0.1
268.09 K, 818 kPa, Liquid, x1 = 0.2691 | 570 ± 0.3
268.09 K, 2369 kPa, Liquid, x1 = 0.2691 | 573.1 ± 0.3
268.09 K, 3999 kPa, Liquid, x1 = 0.2691 | 576.3 ± 0.3
268.09 K, 5608 kPa, Liquid, x1 = 0.2691 | 579.3 ± 0.4
268.09 K, 7451 kPa, Liquid, x1 = 0.2691 | 582.5 ± 0.4
268.09 K, 9258 kPa, Liquid, x1 = 0.2691 | 585.5 ± 0.4
268.09 K, 11262 kPa, Liquid, x1 = 0.2691 | 588.7 ± 0.5
268.09 K, 13236 kPa, Liquid, x1 = 0.2691 | 591.8 ± 0.5
268.09 K, 15455 kPa, Liquid, x1 = 0.2691 | 595 ± 0.6
268.09 K, 17739 kPa, Liquid, x1 = 0.2691 | 598.2 ± 0.6
268.09 K, 20006 kPa, Liquid, x1 = 0.2691 | 601.2 ± 0.6
268.09 K, 22487 kPa, Liquid, x1 = 0.2691 | 604.4 ± 0.7
268.09 K, 24903 kPa, Liquid, x1 = 0.2691 | 607.4 ± 0.7
268.09 K, 27518 kPa, Liquid, x1 = 0.2691 | 610.5 ± 0.8
268.09 K, 30199 kPa, Liquid, x1 = 0.2691 | 613.6 ± 0.8
268.09 K, 33045 kPa, Liquid, x1 = 0.2691 | 616.7 ± 0.9
268.09 K, 36027 kPa, Liquid, x1 = 0.2691 | 619.8 ± 0.9
268.09 K, 39139 kPa, Liquid, x1 = 0.2691 | 622.9 ± 1
293.28 K, 14 kPa, Gas, x1 = 0.2227 | 0.2
293.28 K, 186 kPa, Gas, x1 = 0.2227 | 3.3 ± 0.1
293.28 K, 350 kPa, Gas, x1 = 0.2227 | 6.3 ± 0.1
293.28 K, 509 kPa, Gas, x1 = 0.2227 | 9.4 ± 0.1
293.28 K, 665 kPa, Gas, x1 = 0.2227 | 12.6 ± 0.1
293.28 K, 804 kPa, Gas, x1 = 0.2227 | 15.6 ± 0.1
293.28 K, 932 kPa, Gas, x1 = 0.2227 | 18.7 ± 0.1
293.28 K, 1050 kPa, Gas, x1 = 0.2227 | 21.9 ± 0.1
293.28 K, 3770 kPa, Liquid, x1 = 0.2227 | 518.4 ± 0.4
293.28 K, 4686 kPa, Liquid, x1 = 0.2227 | 521.6 ± 0.4
293.28 K, 5576 kPa, Liquid, x1 = 0.2227 | 524.8 ± 0.4
293.28 K, 6556 kPa, Liquid, x1 = 0.2227 | 527.8 ± 0.4
293.28 K, 7610 kPa, Liquid, x1 = 0.2227 | 530.9 ± 0.5
293.28 K, 8755 kPa, Liquid, x1 = 0.2227 | 534.1 ± 0.5
293.28 K, 9941 kPa, Liquid, x1 = 0.2227 | 537.3 ± 0.5
293.28 K, 11195 kPa, Liquid, x1 = 0.2227 | 540.5 ± 0.5
293.28 K, 12466 kPa, Liquid, x1 = 0.2227 | 543.5 ± 0.6
293.28 K, 13825 kPa, Liquid, x1 = 0.2227 | 546.6 ± 0.6
293.28 K, 15156 kPa, Liquid, x1 = 0.2227 | 549.6 ± 0.6
293.28 K, 16605 kPa, Liquid, x1 = 0.2227 | 552.6 ± 0.6
293.28 K, 18128 kPa, Liquid, x1 = 0.2227 | 555.6 ± 0.7
293.28 K, 19790 kPa, Liquid, x1 = 0.2227 | 558.8 ± 0.7
293.28 K, 21473 kPa, Liquid, x1 = 0.2227 | 561.9 ± 0.7
293.28 K, 23224 kPa, Liquid, x1 = 0.2227 | 564.9 ± 0.8
293.28 K, 25127 kPa, Liquid, x1 = 0.2227 | 568.1 ± 0.8
293.28 K, 27137 kPa, Liquid, x1 = 0.2227 | 571.3 ± 0.8
293.28 K, 29216 kPa, Liquid, x1 = 0.2227 | 574.5 ± 0.9
293.28 K, 31365 kPa, Liquid, x1 = 0.2227 | 577.6 ± 0.9
293.28 K, 33453 kPa, Liquid, x1 = 0.2227 | 580.6 ± 1
293.28 K, 35831 kPa, Liquid, x1 = 0.2227 | 583.8 ± 1
313.12 K, 202 kPa, Gas, x1 = 0.2691 | 3.3 ± 0.1
313.12 K, 382 kPa, Gas, x1 = 0.2691 | 6.4 ± 0.1
313.12 K, 558 kPa, Gas, x1 = 0.2691 | 9.5 ± 0.1
313.12 K, 722 kPa, Gas, x1 = 0.2691 | 12.6 ± 0.1
313.12 K, 878 kPa, Gas, x1 = 0.2691 | 15.7 ± 0.1
313.12 K, 1040 kPa, Gas, x1 = 0.2691 | 19 ± 0.1
313.12 K, 1178 kPa, Gas, x1 = 0.2691 | 22 ± 0.1
313.12 K, 1322 kPa, Gas, x1 = 0.2691 | 25.3 ± 0.1
313.12 K, 1455 kPa, Gas, x1 = 0.2691 | 28.5 ± 0.1
313.12 K, 1580 kPa, Gas, x1 = 0.2691 | 31.7 ± 0.1
313.12 K, 1693 kPa, Gas, x1 = 0.2691 | 34.9 ± 0.1
313.12 K, 1773 kPa, Gas, x1 = 0.2691 | 37.9 ± 0.1
313.12 K, 2189 kPa, Liquid, x1 = 0.2691 | 491.5 ± 0.3
313.12 K, 2787 kPa, Liquid, x1 = 0.2691 | 494.6 ± 0.4
313.12 K, 3465 kPa, Liquid, x1 = 0.2691 | 498 ± 0.4
313.12 K, 4173 kPa, Liquid, x1 = 0.2691 | 501.2 ± 0.4
313.12 K, 4917 kPa, Liquid, x1 = 0.2691 | 504.4 ± 0.4
313.12 K, 5710 kPa, Liquid, x1 = 0.2691 | 507.6 ± 0.4
313.12 K, 6516 kPa, Liquid, x1 = 0.2691 | 510.6 ± 0.5
313.12 K, 7434 kPa, Liquid, x1 = 0.2691 | 513.9 ± 0.5
313.12 K, 8423 kPa, Liquid, x1 = 0.2691 | 517.3 ± 0.5
313.12 K, 9421 kPa, Liquid, x1 = 0.2691 | 520.5 ± 0.5
313.12 K, 10495 kPa, Liquid, x1 = 0.2691 | 523.7 ± 0.5
313.12 K, 11669 kPa, Liquid, x1 = 0.2691 | 527.1 ± 0.6
313.12 K, 12933 kPa, Liquid, x1 = 0.2691 | 530.5 ± 0.6
313.12 K, 14205 kPa, Liquid, x1 = 0.2691 | 533.7 ± 0.6
313.12 K, 15491 kPa, Liquid, x1 = 0.2691 | 536.9 ± 0.6
313.12 K, 16847 kPa, Liquid, x1 = 0.2691 | 540 ± 0.7
313.12 K, 18303 kPa, Liquid, x1 = 0.2691 | 543.3 ± 0.7
313.12 K, 19787 kPa, Liquid, x1 = 0.2691 | 546.4 ± 0.7
313.12 K, 21354 kPa, Liquid, x1 = 0.2691 | 549.6 ± 0.8
313.12 K, 22903 kPa, Liquid, x1 = 0.2691 | 552.6 ± 0.8
313.12 K, 24556 kPa, Liquid, x1 = 0.2691 | 555.7 ± 0.8
313.12 K, 26292 kPa, Liquid, x1 = 0.2691 | 558.8 ± 0.9
313.12 K, 28082 kPa, Liquid, x1 = 0.2691 | 561.8 ± 0.9
313.12 K, 29973 kPa, Liquid, x1 = 0.2691 | 564.9 ± 0.9
313.12 K, 32005 kPa, Liquid, x1 = 0.2691 | 568.1 ± 1
313.12 K, 34062 kPa, Liquid, x1 = 0.2691 | 571.2 ± 1
313.12 K, 36163 kPa, Liquid, x1 = 0.2691 | 574.3 ± 1
313.12 K, 38383 kPa, Liquid, x1 = 0.2691 | 577.4 ± 1.1
333.22 K, 50 kPa, Gas, x1 = 0.2227 | 0.8 ± 0.1
333.22 K, 260 kPa, Gas, x1 = 0.2227 | 4.1 ± 0.1
333.22 K, 470 kPa, Gas, x1 = 0.2227 | 7.5 ± 0.1
333.22 K, 671 kPa, Gas, x1 = 0.2227 | 10.9 ± 0.1
333.22 K, 838 kPa, Gas, x1 = 0.2227 | 13.9 ± 0.1
333.22 K, 995 kPa, Gas, x1 = 0.2227 | 16.9 ± 0.1
333.22 K, 1186 kPa, Gas, x1 = 0.2227 | 20.5 ± 0.1
333.22 K, 1363 kPa, Gas, x1 = 0.2227 | 24.1 ± 0.1
333.22 K, 1512 kPa, Gas, x1 = 0.2227 | 27.2 ± 0.1
333.22 K, 1663 kPa, Gas, x1 = 0.2227 | 30.6 ± 0.1
333.22 K, 1805 kPa, Gas, x1 = 0.2227 | 33.9 ± 0.1
333.22 K, 1931 kPa, Gas, x1 = 0.2227 | 37 ± 0.1
